The test system of data set [1] is DU145 cells. Put plainly: Unspecific cytotoxicity (LDH release). It counts as cell-based, human. Conditions: 1–10 µM, 3 and 24 h. On the procedure: To exclude unspecific cytotoxicity as the driving mode of action for antiproliferative effects, the release of lactate dehydrogenase (LDH) from DU145 cells was determined after 3 h and 24 h of treatment using the Cytotoxicity Detection Kit PLUS LDH (Roche Diagnostics GmbH, Mannheim, Germany). The assay was performed as described earlier. Cytotoxicity was determined by subtracting the percentage of LDH release into the supernatant under control conditions of those from treated samples. Measurements were performed in duplicate in n = 3 independent experiments and mean percentage changes ± SEM as compared to controls are shown.
In general terms: LDH in the medium is a marker of cell lysis.

In data set [2] the test system is Hep-G2 cells. Description: Western blot in Hep-G2 cells (acetyl-H3, Apaf-1, Bcl-2). It counts as cell-based, human. Conditions: 24 h. The procedure: Western blots were performed as described earlier. Cells were seeded in 100 mm petri dishes, grown to almost confluency, treated for 24 h, washed and frozen, followed by lysis with RIPA Buffer, added with one cOmplete™ Mini protease Inhibitor tablet/10 mL (Roche), and quantification with Pierce^TM BCA Protein Assay Kit (Thermo Fisher Scientific). Thereafter protein levels were normalized to untreated controls so equal protein loading of 20 µg/lane. Laemmli Buffer and β-mercaptoethanol were added before probes were desaturated at 96 °C for 10 min. First, 7.5% or 12% SDS gels (Biorad, Munich, Germany) were loaded with proteins and electrophoresis was done. Thereafter, proteins were transferred to activated polyvinylidene difluoride membranes (PVDF) by electroblotting. Finally, the membranes were blocked with 1% BSA and incubated with primary antibodies over night at 4 °C. […] Only the Jurkat cells had already a high level of α-tubulin in untreated cells and, thus, drug-induced changes were not detectable in these cells.
(§1) Blots were washed three times with 1% TBS-Tween and incubated with anti-mouse or anti-rabbit peroxidase-coupled anti-IgG secondary antibodies (1:5000–1:10,000) at room temperature for 60 min. Subsequently, antibody bondage was illustrated using Clarity and Clarity Max ECL Western Blotting Substrates (Biorad, Munich, Germany) for detection and Celvin-S developer (Biostep, software SnapAndGo Vs 1.8.1) for development. […] Values were normalized to β-actin expression, which served as a loading control and compared to untreated control expressions which was set at 1. The mean ± SEM of the relative values to control are illustrated with Graph Pad Prism 8.
A general note: Immunoblotting shows a protein as a band on a membrane.

Data set [3] relates to Hep-G2 cells. Put plainly: Unspecific cytotoxicity (LDH release). It counts as cell-based, human. Conditions: 1–10 µM, 3 and 24 h.
Another data set has as its system SMZ1 cells. Description: IC50 by Annexin-V/7AAD dual staining, flow cytometry. It counts as cell-based. Conditions: Homo sapiens, as determined after 48 h, means ± SEM, n ≥ 3, read-out: Growth inhibitory activity IC50, SMZ1. The procedure: Stock solutions (10 mM) prepared by dissolution in DMSO were stored at −20 °C. Working solutions were always freshly prepared before each experiment by dilution of stock solution with medium. The final DMSO concentration never exceeded 0.25%. Treatment-induced changes in cell number were determined by crystal violet (N-hexamethylpararosaniline from Sigma Aldrich) staining. 1000 cells/well (DU145) or 1500 cells/well (Hep-G2) were seeded in 96-well plates and maintained for adherence in an incubator (37 °C, 5% CO2, humidified atmosphere) for 48 h prior to the beginning of the treatment. […] Thereafter, the cells were fixed with 1% glutaraldehyde and stained with 0.1% crystal violet. The unbound dye was removed by rinsing with water. Bound crystal violet was solubilized with 0.2% Triton X-100 (Sigma-Aldrich). Light extinction of crystal violet, which increases linearly with the cell number, was analyzed at 570 nm using an ELISA-Reader (Dynex Technologies, Denkendorf, Germany). For T-cell leukemia/lymphoma cell lines apoptosis was determined using dual staining for Annexin-V and 7AAD via flow cytometry.

For data set [4], the system named is DU145 cells. Put plainly: Cytosolic ROS formation (CellROX Orange fluorescence microscopy). It counts as cell-based, human. Conditions: 6–24 h. The procedure: (§2) Untreated cells incubated with 1.6 mM H2O2 for 30 min served as positive controls. CellROX® Orange reagent (1 µM) was applied, when adding the test compounds. Formation of ROS was measured after 3 h, 6 h, 12 h (not shown) and 24 h using ZOE™ Fluorescent Cell Imager (Biorad, Munich, Germany). n = 3 independent experiments performed in triplicate for each condition.

Data set [5] relates to Hep-G2 cells. The data set is described as above. It counts as cell-based, human. Conditions: 6–24 h. The procedure: as §2
For data set [6], the system named is DU145 cells. Description: Western blot in DU145 cells (acetyl-H3, PARP, EGFR, P-mTOR). Conditions: 24 h. It counts as cell-based, human. The procedure:
Western blots were performed as described earlier. Cells were seeded in 100 mm petri dishes, grown to almost confluency, treated for 24 h, washed and frozen, followed by lysis with RIPA Buffer, added with one cOmplete™ Mini protease Inhibitor tablet/10 mL (Roche), and quantification with Pierce^TM BCA Protein Assay Kit (Thermo Fisher Scientific). Thereafter protein levels were normalized to untreated controls so equal protein loading of 20 µg/lane. Laemmli Buffer and β-mercaptoethanol were added before probes were desaturated at 96 °C for 10 min. First, 7.5% or 12% SDS gels (Biorad, Munich, Germany) were loaded with proteins and electrophoresis was done. Thereafter, proteins were transferred to activated polyvinylidene difluoride membranes (PVDF) by electroblotting. Finally, the membranes were blocked with 1% BSA and incubated with primary antibodies over night at 4 °C.
as §1

Data set [7] concerns caspase-3 activity in DU145 cells. Put plainly: Apoptosis-specific caspase-3 activation (AC-DEVD-AMC cleavage). Conditions: 24 h treatment, 1–10 µM. It counts as cell-based, human. On the procedure:
(§3) Changes in caspase-3 activity were measured by the cleavage of the fluorogenic substrate AC-DEVD-AMC (EMD Millipore, Billerica, MA, USA), as described previously. […] Subsequently, the lysates were incubated for 1 h at 37 °C with a substrate solution containing 20 μg/mL AC-DEVD-AMC, 20 mM HEPES, 10% glycerol and 2 mM DTT at pH 7.5.

Data set [8] has as its system caspase-3 activity in Hep-G2 cells. Described as above. Conditions: 24 h treatment, 1–10 µM. It counts as cell-based, human. The procedure: as §3

We go through one compound from article PMC8704709, “Improved Anticancer Activities of a New Pentafluorothio-Substituted Vorinostat-Type Histone Deacetylase Inhibitor” (Pharmaceuticals, 2021).

Molecules are shown by their SMILES.

What is called IC50 is the concentration that inhibits the measured activity by half. For `O=C(CCCCCCC(=O)Nc1ccccc1)NO` [SAHA, suberoylanilide hydroxamic acid, reference compound], the “LDH release (unspecific cytotoxicity)” value with DU145 cells [1] and in the data set with Hep-G2 cells [3] was “no relevant induction of unspecific cytotoxicity” throughout. In addition, the “acetylated histone H3 level” value in the data set with Hep-G2 cells [2] and with DU145 cells [6] was “dose-dependent rise of H3 acetylation” each time. Also, the IC50 with SMZ1 cells is 2.87 ± 0.33 µM. For the same compound, the “cytosolic ROS formation” value in the data set with DU145 cells [4] and in the data set on Hep-G2 cells [5] was “much weaker ROS increase” each time. The EGFR protein expression entry with DU145 cells [6] is “pronounced and significant suppression in the expression of the EGFR”. Also, the caspase-3 activation entry in [7] and in data set [8] was “comparable caspase-3 inductions” throughout.
